Results: the supplement of paper PMC13380429

Columns and labels:
Conditions in all cases: 72 h
Calu-3 [1] = assay: cell viability relative to DMSO; higher = less toxic
Vero E6 [2] = assay: as above
HepG2 [3] = assay: as above
Caco-2 [4] = assay: as above
U2OS [5] = assay: as above
Calu-3 [6] = assay: relative viability EC50 (midpoint between 100% and the lowest measured viability); higher = less toxic
Vero E6 [7] = assay: as above
HepG2 [8] = assay: as above
Caco-2 [9] = assay: as above
U2OS [10] = assay: as above
Calu-3 [11] = assay: drug sensitivity score (DSS) for viability; higher = more toxic; extreme values may be limits of the assay
Vero E6 [12] = assay: as above
HepG2 [13] = assay: as above
Caco-2 [14] = assay: as above
U2OS [15] = assay: as above

Structure (SMILES)	cell viability (Calu-3 [1]; 1 nM) [%]	cell viability (Calu-3 [1]; 10 nM) [%]	cell viability (Calu-3 [1]; 100 nM) [%]	cell viability (Calu-3 [1]; 1000 nM) [%]	cell viability (Calu-3 [1]; 10000 nM) [%]	cell viability (Vero E6 [2]; 1 nM) [%]	cell viability (Vero E6 [2]; 10 nM) [%]	cell viability (Vero E6 [2]; 100 nM) [%]	cell viability (Vero E6 [2]; 1000 nM) [%]	cell viability (Vero E6 [2]; 10000 nM) [%]	cell viability (HepG2 [3]; 1 nM) [%]	cell viability (HepG2 [3]; 10 nM) [%]	cell viability (HepG2 [3]; 100 nM) [%]	cell viability (HepG2 [3]; 1000 nM) [%]	cell viability (HepG2 [3]; 10000 nM) [%]	cell viability (Caco-2 [4]; 1 nM) [%]	cell viability (Caco-2 [4]; 10 nM) [%]	cell viability (Caco-2 [4]; 100 nM) [%]	cell viability (Caco-2 [4]; 1000 nM) [%]	cell viability (Caco-2 [4]; 10000 nM) [%]	cell viability (U2OS [5]; 1 nM) [%]	cell viability (U2OS [5]; 10 nM) [%]	cell viability (U2OS [5]; 100 nM) [%]	cell viability (U2OS [5]; 1000 nM) [%]	cell viability (U2OS [5]; 10000 nM) [%]	relative viability EC50 (Calu-3 [6]) [µM]	relative viability EC50 (Vero E6 [7]) [µM]	relative viability EC50 (HepG2 [8]) [µM]	relative viability EC50 (Caco-2 [9]) [µM]	relative viability EC50 (U2OS [10]) [µM]	drug sensitivity score (Calu-3 [11])	drug sensitivity score (Vero E6 [12])	drug sensitivity score (HepG2 [13])	drug sensitivity score (Caco-2 [14])	drug sensitivity score (U2OS [15])
COc1ccc(CN2CCN(C(c3ccc(F)cc3)c3ccc(F)cc3)CC2)c(OC)c1OC [lomerizine]	88.9	98.3	94	139	96	92.7	96.5	91.7	93.7	96.7	110	102	102	93	106	96.9	104	87.9	98.8	82.7	89.7	99.3	90.3	95.1	99.1	> 10	> 10	> 10	> 10	> 10	0	0	0	0.3	0
CNC(=O)c1cccc2cc(Oc3ccnc4cc(OCC5(N)CC5)c(OC)cc34)ccc12 [lucitanib]	98.8	93	101	98.9	92.1	97.2	100	98.8	86.1	86	95.7	108	106	104	84	93.6	98.1	93.2	97.6	100	99.1	94.4	93.6	99	91.5	> 10	> 10	> 10	> 10	> 10	0	1.2	0.2	0	0
COc1cc(-n2c(=S)[nH]c3ccccc3c2=O)c(Cl)cc1Cl [mdivi-1]	95.2	97.8	96.2	98.6	92.1	97.8	106	95.1	97.3	93	94.8	94.3	99.9	95.7	88.3	103	98.1	94.2	94.4	86.6	99.6	104	101	99.7	92.4	> 10	> 10	> 10	> 10	> 10	0	0	0	0.1	0
CNC[C@H](O)[C@@H](O)[C@H](O)[C@H](O)CO [meglumine]	108	95.7	99.4	88.2	97.7	88.3	91.3	93.9	99.5	96.5	89.7	93.5	81.5	98.1	85	92.6	76.1	95.3	104	95.1	98.3	92.8	104	90.8	99	> 10	> 10	> 10	> 10	> 10	0	0	0	0	0
C1N2CN3CN1CN(C2)C3 [methenamine]	97.1	96.4	97.2	102	93.5	98.7	92.3	93.1	94.6	102	98.4	96.2	102	105	106	94.6	99.8	96.5	104	106	89.9	97.5	100	98.2	99.7	> 10	> 10	> 10	> 10	> 10	0	0	0	0	0
CCOC(=O)[C@@](C)(N)Cc1ccc(O)c(O)c1 [methyldopate]	91.4	97.1	101	102	92.5	99.6	98.4	97.4	107	97.7	95.7	96.4	97.4	97.4	90.9	103	101	100	103	88.4	103	98.4	101	102	89.3	> 10	> 10	> 10	> 10	> 10	0	0	0	0	0
CCC(=O)O[C@@H]1CC(=O)O[C@H](C)C/C=C/C=C/[C@H](OC(C)=O)[C@H](C)C[C@H](CC=O)[C@H](O[C@@H]2O[C@H](C)[C@@H](O[C@H]3C[C@@](C)(OC(C)=O)[C@@H](OC(=O)CC)[C@H](C)O3)[C@H](N(C)C)[C@H]2O)[C@H]1OC [miocamycin]	91.1	104	85.1	92.8	82.4	97.5	96.8	96.4	99.1	96.7	96.2	90.8	103	90.6	90	98.4	102	96.5	96.5	85.6	96.9	98.7	97.9	99.7	92.4	> 10	> 10	> 10	> 10	> 10	0.9	0	0	0.4	0
Nc1nc(CC(=O)Nc2ccc(CCNC[C@H](O)c3ccccc3)cc2)cs1 [mirabegron]	93.8	97	100	110	108	99.1	96.3	101	93.2	103	104	96.6	104	93.2	102	99.8	100	97.7	108	92.2	102	98.2	93.6	102	97.5	> 10	> 10	> 10	> 10	> 10	0	0	0	0	0
O=C(NCCN1CCOCC1)c1ccc(Cl)cc1 [moclobemide]	93.5	103	92.9	103	106	98.5	93.3	98.5	95.9	110	99.4	94.4	108	98.3	103	88.4	99.2	90.7	88.9	94.1	92.6	98.9	96.3	103	106	> 10	> 10	> 10	> 10	> 10	0	0	0	0	0
CCCCCCCCCCCCCCCCCC(=O)OCC(O)CO (stereo not given) [monostearin]	103	101	83.9	105	94.8	99.9	106	96.3	99.5	100	104	103	97.1	96.5	102	100	96.9	89.6	100	96.9	97.8	96.5	92	104	93.8	> 10	> 10	> 10	> 10	> 10	0	0	0	0	0
C=CCN1CC[C@]23c4c5ccc(O)c4O[C@H]2[C@@H](OCCOCCOCCOCCOCCOCCOCCOC)CC[C@@]3(O)[C@H]1C5 [naloxegol]	97.1	107	91.7	101	88.7	101	96.7	103	97.5	105	99.8	94	97.8	93.6	107	107	97.9	98.5	104	105	93.9	99.1	95	98.8	96.5	> 10	> 10	> 10	> 10	> 10	0	0	0	0	0
CCN(CC)CCOC(=O)C1(c2ccc([N+](=O)[O-])cc2)CCCC1 [nitrocaramiphen]	90	95.7	96.5	94	98.2	104	92.9	97.2	102	106	107	97.2	103	108	102	103	90.1	98.3	106	101	95.5	102	95.4	94.8	98.5	> 10	> 10	> 10	> 10	> 10	0	0	0	0	0
CCn1cc(C(=O)O)c(=O)c2cc(F)c(N3CCNCC3)cc21 [norfloxacin]	93.9	83.9	92.2	91.3	104	93.1	99.3	94.8	94.1	104	100	98.5	102	100	101	104	93.9	96.1	106	103	100	99.1	97.9	104	105	> 10	> 10	> 10	> 10	> 10	0	0	0	0	0
